Laboratory results: patent EP3180003B1 (The Regents of the University of California, priority 2014, dated 2016)
Read-outs that look alike come from different tables or passages of the source. Each block holds one compound with its values, some of them ahead of it.

Tests used:
PKCε [1] = target: T1, PKCε (Homo sapiens, UniProt Q02156); experiment: Cell-based assay for PKCε modulation of GABAA receptors (γ2 S327 phosphorylation, ELISA format); conditions: HEK293 cell line expressing α1β2γ2 GABAA receptors and over-expressing PKCε; anti-γ2S(P)327 ELISA
T1 sequence (Q02156 1-737): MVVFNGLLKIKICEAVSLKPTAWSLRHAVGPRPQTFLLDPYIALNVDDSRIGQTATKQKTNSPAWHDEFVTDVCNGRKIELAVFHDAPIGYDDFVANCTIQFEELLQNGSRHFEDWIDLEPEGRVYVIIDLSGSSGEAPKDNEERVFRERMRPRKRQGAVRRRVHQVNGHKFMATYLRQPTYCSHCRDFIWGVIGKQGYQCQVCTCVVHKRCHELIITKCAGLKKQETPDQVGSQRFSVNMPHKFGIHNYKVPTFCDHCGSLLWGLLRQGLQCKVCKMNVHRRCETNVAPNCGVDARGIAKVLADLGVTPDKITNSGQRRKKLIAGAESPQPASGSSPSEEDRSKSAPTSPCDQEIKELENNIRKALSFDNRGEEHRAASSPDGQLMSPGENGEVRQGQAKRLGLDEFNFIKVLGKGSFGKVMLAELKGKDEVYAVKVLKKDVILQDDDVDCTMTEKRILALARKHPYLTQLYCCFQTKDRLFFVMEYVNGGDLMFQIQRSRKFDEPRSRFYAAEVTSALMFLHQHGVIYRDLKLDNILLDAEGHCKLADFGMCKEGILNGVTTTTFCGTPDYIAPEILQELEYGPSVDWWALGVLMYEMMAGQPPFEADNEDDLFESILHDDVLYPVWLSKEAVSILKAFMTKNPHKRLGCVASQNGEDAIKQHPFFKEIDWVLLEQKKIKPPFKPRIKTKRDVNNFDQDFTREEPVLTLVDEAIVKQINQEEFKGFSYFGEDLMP
Method: PKCε inhibition can also be measured by assaying benzodiazepine modulation of GABAA receptors in intact cells. PKCε decreases benzodiazepine potency at GABAA receptors by phosphorylating S327 of GABAA y2 subunits. The GABAA cell-based assay uses a HEK293 cell line that expresses α1β2γ2 GABAA receptors and over-expresses PKCε. […] This 6-fold difference in benzodiazepine potency can be detected without addition of a PKC activator. The assay is performed using an anti-phospho antibody that recognizes γ2S(P)327 in an ELISA format to generate 8 point dose-response curves for each compound. Background values, detected from wells in which no primary antibody was added, are subtracted from sample values. Maximal phosphorylation (positive control) is detected in reactions containing phorbol ester and lacking an inhibitor.

PKCε [2] = target: T1, PKCε; experiment: FRET based LANCE Ultra kinase assay; format: biochemical
Method: Certain compounds of this invention were tested in the captioned assay.

PKCε [3] = target: T1, PKCε; experiment: Inhibition of PKCε (Example 4); format: biochemical
PKCγ = target: T2, PKCγ (Homo sapiens, UniProt P05129); experiment: Inhibition of conventional PKCγ (Example 4); format: biochemical; conditions: for inhibition of conventional PKCγ: at 10 µM, result in words
T2 construct: purchased Invitrogen (Carlsbad, CA, USA)
Method: (§1) For example, to measure inhibition of conventional PKCγ, novel PKCδ, and atypical PKCζ, the same kinase assay disclosed above for PKCε can be used with recombinant human PKCγ, PKCδ, or PKCζ purchased from Invitrogen (Carlsbad, CA, USA) in place of PKCs, with 0.4 mM CaCl2 assay buffer for PKCγ.
(§2) The specificity of the compounds disclosed herein for inhibition of PKCε can be determined by examining their ability to inhibit ROCK1 and selected members of each PKC subfamily according to the protocols of the counter-screening assay for selectivity disclosed herein. This assay can be performed according to the biochemical assay for PKCε described above with some modifications. Rather than varying the concentrations of the inhibitors, only 10µM of each compound can be used.

PKCδ = target: T3, PKCδ (Homo sapiens, UniProt Q05655); experiment: Inhibition of novel PKCδ (Example 4); format: biochemical
T3 construct: purchased Invitrogen (Carlsbad, CA, USA)
T3 sequence (Q05655 whole entry): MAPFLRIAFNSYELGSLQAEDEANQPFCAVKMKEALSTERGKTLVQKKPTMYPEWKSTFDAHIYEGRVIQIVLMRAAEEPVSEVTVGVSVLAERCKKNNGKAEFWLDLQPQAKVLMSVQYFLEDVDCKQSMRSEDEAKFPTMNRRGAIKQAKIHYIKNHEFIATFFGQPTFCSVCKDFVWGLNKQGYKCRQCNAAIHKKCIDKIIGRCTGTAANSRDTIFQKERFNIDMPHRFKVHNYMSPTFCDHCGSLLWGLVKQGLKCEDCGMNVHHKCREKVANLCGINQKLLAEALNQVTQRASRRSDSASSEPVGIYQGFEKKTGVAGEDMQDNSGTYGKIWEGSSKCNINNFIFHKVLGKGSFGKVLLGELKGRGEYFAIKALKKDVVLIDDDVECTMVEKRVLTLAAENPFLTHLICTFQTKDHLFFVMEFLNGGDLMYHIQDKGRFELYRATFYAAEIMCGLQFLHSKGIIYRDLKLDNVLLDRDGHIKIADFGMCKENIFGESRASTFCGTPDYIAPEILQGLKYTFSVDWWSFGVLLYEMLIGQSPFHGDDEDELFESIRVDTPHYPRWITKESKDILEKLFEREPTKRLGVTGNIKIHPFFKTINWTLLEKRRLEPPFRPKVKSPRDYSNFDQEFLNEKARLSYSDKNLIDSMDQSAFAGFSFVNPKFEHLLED
Method: as §1, §2

PKCθ = target: T4, PKCθ (Homo sapiens, UniProt Q04759); experiment: Inhibition of novel PKCθ (Example 4); format: biochemical
T4 construct: purchased Invitrogen P2996
T4 sequence (Q04759 whole entry): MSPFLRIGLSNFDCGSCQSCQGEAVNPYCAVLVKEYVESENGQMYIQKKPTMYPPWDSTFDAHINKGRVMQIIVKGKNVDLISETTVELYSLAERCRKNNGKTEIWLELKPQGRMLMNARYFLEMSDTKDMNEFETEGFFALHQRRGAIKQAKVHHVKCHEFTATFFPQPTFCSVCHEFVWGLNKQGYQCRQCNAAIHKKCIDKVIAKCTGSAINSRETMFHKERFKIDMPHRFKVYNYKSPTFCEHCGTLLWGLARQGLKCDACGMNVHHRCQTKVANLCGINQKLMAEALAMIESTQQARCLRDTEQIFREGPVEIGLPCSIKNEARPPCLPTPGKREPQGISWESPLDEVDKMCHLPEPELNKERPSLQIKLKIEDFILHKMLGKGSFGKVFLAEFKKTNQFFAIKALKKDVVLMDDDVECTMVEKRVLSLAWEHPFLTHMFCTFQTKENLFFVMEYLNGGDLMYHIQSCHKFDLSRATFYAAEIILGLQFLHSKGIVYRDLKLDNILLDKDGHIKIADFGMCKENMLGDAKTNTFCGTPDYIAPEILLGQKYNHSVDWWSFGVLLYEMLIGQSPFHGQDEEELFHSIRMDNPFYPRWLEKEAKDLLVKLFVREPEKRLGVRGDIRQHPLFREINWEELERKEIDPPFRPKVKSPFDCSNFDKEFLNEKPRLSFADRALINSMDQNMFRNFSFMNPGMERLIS
Text: Inhibition of PKC theta activity can be measured using the same primary phosphotransferase assay for PKCε except one substitutes recombinant human PKC theta purchased from Invitrogen for PKCε. PKC theta can also be assayed with a fluorescence polarization (FP) assay using the commercially available Protein Kinase C Assay Kit, Red, from Invitrogen (Product ID No P2941), essentially in accordance with the protocol supplied by the manufacturer. The substrate used is […] (Mw 1561), which can be obtained from Invitrogen (Product ID No P2760). The isozyme PKC theta can be obtained from Invitrogen (Product ID No P2996).
as §2

PKCζ = target: T5, PKCζ (Homo sapiens, UniProt Q05513); experiment: Inhibition of atypical PKCζ (Example 4); format: biochemical; conditions: for activity against atypical PKCζ: at 10 µM, result in words
T5 construct: purchased Invitrogen (Carlsbad, CA, USA)
T5 sequence (Q05513 1-592): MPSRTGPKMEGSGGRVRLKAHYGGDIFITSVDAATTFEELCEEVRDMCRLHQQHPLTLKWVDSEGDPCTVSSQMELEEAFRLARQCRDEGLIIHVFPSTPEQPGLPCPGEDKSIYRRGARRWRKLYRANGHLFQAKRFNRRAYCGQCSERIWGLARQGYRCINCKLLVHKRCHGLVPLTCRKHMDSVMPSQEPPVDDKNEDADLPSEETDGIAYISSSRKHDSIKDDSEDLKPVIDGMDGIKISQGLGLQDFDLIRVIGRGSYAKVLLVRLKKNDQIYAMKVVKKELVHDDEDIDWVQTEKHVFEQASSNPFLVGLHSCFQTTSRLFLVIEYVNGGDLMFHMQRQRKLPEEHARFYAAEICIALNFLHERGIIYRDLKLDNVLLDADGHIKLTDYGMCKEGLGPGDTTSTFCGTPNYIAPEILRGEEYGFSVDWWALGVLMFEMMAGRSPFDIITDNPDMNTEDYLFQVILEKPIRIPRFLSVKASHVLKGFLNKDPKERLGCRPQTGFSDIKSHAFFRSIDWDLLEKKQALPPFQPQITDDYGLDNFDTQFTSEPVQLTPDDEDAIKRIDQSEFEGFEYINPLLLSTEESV
Method: as §1, §2

C57BL/6 mice = experiment: Ethanol-induced loss of righting reflex (LORR) in vivo; conditions: 10 mg/kg i.p.
Method: Compound 1 was administered (10 mg/kg) i.p. to C57BL/6 mice, which were administered 20 min later 3.6 g/kg ethanol i.p. to induce loss of righting. […] These findings indicate that this class of compounds can cross the blood-brain barrier and act as a PKCε inhibitor, and prolong the duration of the LORR in the treated animals. Such increased signs of ethanol intoxication are contemplated to be aversive and to limit ethanol self-administration.

PKCε [4] = target: T1, PKCε; experiment: Primary PKCε phosphotransferase assay; format: biochemical; design: FLAG; made in house; host or cells: COS-7 cells; conditions: log of molar IC50
Method: The assay mixture can contain 2 ng FLAG-tagged human PKCε expressed and purified from COS-7 cells in 25 µl kinase buffer containing 20 mM Tris-HCI, pH 7.4, 0.25 mM EGTA, 0.1 mg/ml BSA, 0.72% TritonX-100, 10 mM MgCl2, 0.48 µg/µl L-α-phosphatidylserine (PS) and 0.107 µg/µl sn-1,2-dioleoylglecerol (DG) (Avanti Polar Lipids, Alabaster, AL, USA), 2 µM K(Biotin)-[…], 2.5 µM ATP and 0.05 µCi [^32γ-P]ATP. After incubation at 27 °C for 90 min, the reaction is terminated by adding 12.5 µl of 7.5 M of guanidine hydrochloride. Eight microliters of reaction mixture is spotted onto a pre-cut streptavidin-coated SAM Biotin Capture membrane. […] The membrane is then air dried at room temperature for 60 min and radioactivity remaining on the membrane can be measured by liquid scintillation counting. Specific PKCε activity can then be calculated as the difference between cpms detected in the presence and absence of lipids (PS and DG). Maximal PKCε activity (positive control) can be detected in reactions lacking an inhibitor. […]
IC50 values can be calculated from normalized dose-response curves by nonlinear regression analysis.
The ability of the compounds disclosed herein to inhibit PKCε can be assessed using the primary PKCε assay described above using the biotinylated substrate […]. […]

[5] = log of molar IC50, read-out: Log IC50 (converted)

IC50 (PKCε [1]): 8.9 nM
IC50 (PKCε [2]; read-out: IC50): 56.6 nM
Ki (PKCε [3]; PKCε, read-out: Ki): < 20 nM
Ki (PKCε [3]; n=3, read-out: PKCε Ki): 17 nM
IC50 (PKCε [3]; read-out: PKCε Log IC50 (converted)): 55 nM
inhibition at 10 µM (PKCγ; 10 µM inhibitor, n=3, read-out: Percent inhibition of PKC activity, Conventional PKCγ): 16.7 ± 3.8%
inhibition of conventional PKCγ (PKCγ): inhibited
inhibition at 10 µM (PKCδ; 10 µM inhibitor, n=3, read-out: Percent inhibition of PKC activity, Novel PKCδ): 96.3 ± 0.7%
Ki (PKCδ; n=3): 173 nM
IC50 (PKCδ; read-out: PKCδ Log IC50 (converted)): 708 nM
inhibition at 10 µM (PKCθ; 10 µM inhibitor, n=3, read-out: Percent inhibition of PKC activity, Novel PKCθ): 96.9 ± 1.1%
Ki (PKCθ; n=3): 91.7 nM
IC50 (PKCθ; read-out: PKCθ Log IC50 (converted)): 372 nM
inhibition at 10 µM (PKCζ; 10 µM inhibitor, n=3, read-out: Percent inhibition of PKC activity, Atypical PKCζ): 55.9 ± 3.8%
IC50 (PKCε [4]): 131 nM
Compound: NC(CNC(=O)C1(c2ccc(Cl)cc2)CC1)[C@H]1CC[C@H](C(=O)Nc2ccncc2)CC1 (relative stereo) [Compound 1, trans-4-[1-Amino-2-[[[1-(4-chlorophenyl)cyclopropyl]carbonyl]amino]ethyl]-N-4-pyridinyl-cyclohexylcarboxamide]
increase of LORR duration (C57BL/6 mice; 20 min before 3.6 g/kg ethanol i.p., versus vehicle-treated mice, p = 0.036): 45%
LORR duration (C57BL/6 mice; drug-treated mice (n=10), 3.6 g/kg ethanol i.p., vehicle 31.4 ± 4.9 (n=8)): 45.7 ± 4.0

Compound: NC(C(=O)NCC1(c2ccc(Cl)cc2)CC1)[C@H]1CC[C@H](C(=O)Nc2ccncc2)CC1 (stereo partly drawn) [Compound 2]
IC50 (PKCε [2]; [5]): 3240 nM
IC50 (PKCε [4]): 1690 nM

Compound: NC(CNC(=O)C1(c2ccc(F)cc2)CC1)[C@H]1CC[C@H](C(=O)Nc2ccncc2)CC1 (stereo partly drawn) [Compound 3]
Log IC50 (PKCε [2]; log of molar IC50): -6.835
IC50 (PKCε [2]; read-out: IC50): 146 nM

Compound: NC(CNC(=O)C1(c2ccc(F)cc2Cl)CCCC1)[C@H]1CC[C@H](C(=O)Nc2ccncc2)CC1 (stereo partly drawn) [Compound 4]
Log IC50 (PKCε [2]; log of molar IC50): -6.917
IC50 (PKCε [2]; read-out: IC50): 121 nM

Compound: NC(CNC(=O)C1(c2ccc(F)cc2)CCCC1)[C@H]1CC[C@H](C(=O)Nc2ccncc2)CC1 (stereo partly drawn) [Compound 5]
Log IC50 (PKCε [2]; log of molar IC50): -7.370
PKCε Log IC50(M) (PKCε [3]; log IC50 ± SE, n=3): -7.37 ± 0.03 M
inhibition of conventional PKCγ (PKCγ): inhibited
activity against atypical PKCζ (PKCζ): almost no activity

Compound: NC(CNC(=O)C1(c2ccc(F)c(F)c2)CC1)[C@H]1CC[C@H](C(=O)Nc2ccncc2)CC1 (stereo partly drawn) [Compound 6]
Log IC50 (PKCε [2]; log of molar IC50): -7.282

Compound: CC(C)(C(=O)NCC(N)[C@H]1CC[C@H](C(=O)Nc2ccncc2)CC1)c1cccs1 (stereo partly drawn) [Compound 7]
Log IC50 (PKCε [2]; log of molar IC50): -6.553
IC50 (PKCε [2]; read-out: IC50): 280 nM

Compound: NC(CNC(=O)C1CCc2cc(Cl)ccc21)[C@H]1CC[C@H](C(=O)Nc2ccncc2)CC1 (stereo partly drawn) [Compound 8]
Log IC50 (PKCε [2]; log of molar IC50): -6.445
IC50 (PKCε [2]; read-out: IC50): 359 nM

Compound: CC(C)(C(=O)NCC(N)[C@H]1CC[C@H](C(=O)Nc2ccncc2)CC1)c1ccc(Cl)cc1 (stereo partly drawn) [Compound 9]
Log IC50 (PKCε [2]; log of molar IC50): -7.398
IC50 (PKCε [2]; read-out: IC50): 40 nM
inhibition of conventional PKCγ (PKCγ): inhibited
activity against atypical PKCζ (PKCζ): almost no activity

Compound: NC(C(=O)NC1COc2ccccc21)[C@H]1CC[C@H](C(=O)Nc2ccncc2)CC1 (stereo partly drawn) [Compound 10]
Log IC50 (PKCε [2]; log of molar IC50): -5.695
IC50 (PKCε [2]; read-out: IC50): 2020 nM

Compound: NC(C(=O)N[C@@H]1CCCc2ccccc21)[C@H]1CC[C@H](C(=O)Nc2ccncc2)CC1 (stereo partly drawn) [Compound 11]
IC50 (PKCε [2]; [5]): 3090 nM
IC50 (PKCε [2]; read-out: IC50): 3090 nM

Compound: NC(C(=O)NCc1ccc(F)cc1)[C@H]1CC[C@H](C(=O)Nc2ccncc2)CC1 (stereo partly drawn) [Compound 12]
Log IC50 (PKCε [2]; log of molar IC50): -5.625
IC50 (PKCε [2]; read-out: IC50): 2370 nM
